PubChem BioAssay AID624491 (Broad Institute, 2012)

system: D54 ERlucT glycosylation luciferase reporter, luminescence, 24 h; experiment: N-linked glycosylation inhibitors, luciferase reporter, dose response, D54 ERlucT cells, luminescence, cherry-picks (AID 624491);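 also: signal gain reflects blocked N-linked glycosylation of a luciferase reporter; actives raise luciferase signal so AC26 marks activators of the reporter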

| SMILES | AC26 [nM] |
| --- | --- |
| O=C(OCn1ncc(Cl)c(Cl)c1=O)c1ccc(C(F)(F)F)cc1 | 1130 |
| Cc1cccc([C@@H]2[C@@H]3C(=O)N(Cc4ccccc4)C(=O)[C@@H]3[C@]3(Cc4ccccc4)C(=O)N(c4cccc(F)c4)C(=O)N23)c1 | 11400 |
| Cc1cc(C)nc(SC2CC(=O)N(c3ccc(C)c(C)c3)C2=O)n1 (stereo not given) | 14300 |
| Cc1cccn2c(=O)c3cc(C(=O)NCCN4CCOCC4)c(=N)n(CCc4ccccc4)c3nc12 | 8760 |
| COc1ccc(-c2[nH]nc(-c3ccccc3)c2-c2nc3ccccc3[nH]2)cc1 | 3900 |
| CCc1nc2ccc(C(=O)NCCc3c[nH]c4ccccc34)cn2c1N(C=O)CCC(C)C | 343 |
| CCOc1cc(NC(=O)CCl)c(OCC)cc1NC(=O)CCl | 1690 |
| COc1ccc(Cl)cc1NC(=O)CN(C)CC(=O)Nc1cc(OC)c(OC)c(OC)c1 | 10200 |
| O=C(CCl)Nc1cccc(S(=O)(=O)NC2=NCCC2)c1 | 939 |
| CN(C)c1ccc(/C=C/C(=O)c2ccc(C(C)(C)C)cc2)cc1[N+](=O)[O-] | 5570 |
| Cc1ccc(CC(=O)NCc2ccc(F)cc2)cc1 | 824 |
| COc1cc(-c2coc3c(C(=O)NCc4ccc(OC)c(OC)c4)cccc23)ccc1O | 1220 |
| CC(C)CN(C(=O)COC(=O)CCSc1ccc(Cl)cc1)c1c(N)n(Cc2ccccc2)c(=O)[nH]c1=O | 4450 |
| COc1cccc(-c2nc(N3CCN(C)CC3)c3ccccc3n2)c1O | 3610 |
| c1ccc(Cc2nnc(Sc3ccccc3)c3ccccc23)cc1 | 5170 |
| CCc1cc2c(=O)n(Cc3ccco3)c(SCc3c(C)noc3C)nc2s1 | 249 |
| Cc1ccc(N=Nc2c(N)nn(-c3ccccc3)c2N)cc1 | 602 |
| COc1cc(/C=N/NC(=O)c2ccc(CSc3nc4ccccc4[nH]3)cc2)cc(OC)c1OC | 3980 |
| CCc1nn2c(N(C)CCO)cc(C)nc2c1-c1ccc(F)cc1 | 12800 |
| CCn1c2ccccc2c2cc(NC(=O)COC(=O)c3cc(S(N)(=O)=O)c(Cl)cc3Cl)ccc21 | 3710 |
| COc1ccc(C(=O)/C=C/c2ccc(-c3ccccc3)cc2)cc1CSCC(=O)O | 1480 |
| CCOc1ccc(Nc2c3ccccc3nc3ccccc23)cc1 | 365 |

| SMILES | AC26 [nM] |
| --- | --- |
| Cc1cc(C)cc(N2C(=O)NC(=O)/C(=C\C=C\c3ccco3)C2=O)c1 | 1130 |
| C#CC[N+](C)(C)CCCCCCCCCCCC | 7360 |
| O=C(CC1Nc2ccccc2NC1=O)Nc1ccccc1 (stereo not given) | 4880 |
| COc1ccc(NC(=O)COC(=O)/C=C/C(=O)OCC(=O)Nc2ccc(OC)c(Cl)c2)cc1Cl | 16600 |
| Oc1cc(Nc2ccccc2)cc2cccnc12 | 1030 |
| O=C(N/N=C/c1c[nH]c2ccccc12)C1COc2ccccc2O1 (stereo not given) | 1310 |
| COc1cc(C(=O)Nc2cc3c(cc2N2CCCCC2)n(C)c(=O)n3C)cc(OC)c1OC | 3870 |
| CCN(CC)CCn1c2ccccc2c2cnc(N)c(C#N)c21 | 750 |
| Cc1ccc(N2C(=O)NC(=O)/C(=C\C=C\c3ccco3)C2=O)cc1C | 875 |
| COc1ccc(S(=O)(=O)N2CCCCC2)cc1NC(=O)c1[nH]c(C)c(C(C)=O)c1C | 1630 |
| CCOC(=O)c1ccccc1NS(=O)(=O)c1ccc(OC)cc1 | 16000 |
| COc1cccc(N2CCN(C(=O)c3ccc(CS(=O)c4ccc(C)cc4)o3)CC2)c1 (stereo not given) | 110 |
| COc1ccc(/C=N/NC(=O)c2cccnc2)cc1COc1ccc(NC(C)=O)cc1 | 1990 |
| COc1ccc(C=CC(=O)c2c(OC)cc(OC)c(OC)c2O)cc1 | 4040 |
| O=c1cc(-c2ccccc2)[nH]c2ccccc12 | 433 |
| Cn1c(=O)n(C)c2cc(NS(=O)(=O)c3ccc(C(C)(C)C)cc3)ccc21 | 9340 |
| CCn1c(=O)c([N+](=O)[O-])c(Cl)c2ccccc21 | 1390 |
| COc1ccc2sc3cccc(NCCN(C)C)c3c(=O)c2c1 | 4530 |
| CC(=O)Nc1cccc(-c2ccnc3c2CC(C)(C(=O)Nc2cccc(C(C)=O)c2)O3)c1 (stereo not given) | 9480 |
| COc1ccc(CCNc2c3ccccc3nc3ccccc23)cc1OC | 1040 |
| CC(=O)NC(c1cccc(F)c1)c1nc(-c2ccccc2C)cs1 (stereo not given) | 502 |
| O=C(CSc1nnc(-c2cc3ccccc3cc2O)n1Cc1ccco1)N1CCc2ccccc2C1 | 702 |

| SMILES | AC26 [nM] |
| --- | --- |
| CC(CCc1ccccc1)NC(=O)c1ccc(NC(=O)c2ccccc2)cc1 (stereo not given) | 4540 |
| CCOC(=O)c1ccc(Oc2cc(C)nc(SC)n2)cc1 | 1720 |
| Cn1c(SCC(=O)Nc2cccc(F)c2)nc2c([nH]c3ccccc32)c1=O | 5420 |
| CCn1c2ccccc2c2cc(NC(=O)CNCc3ccccc3OC)ccc21 | 1360 |
| CCCNC(=O)c1ccccc1NC(=O)c1ccc2c(c1)NC(=O)C(C)S2 (stereo not given) | 1450 |
| COc1ccc2c(c1)[C@H]1[C@H](CO2)[C@H](c2ccccc2)[C@]2(C)C(=O)Nc3cc(C)ccc3C(=O)N12 | 51.9 |
| COc1cc(C2Sc3ccccc3NC3=C2C(=O)OC3)cc(OC)c1OC (stereo not given) | 12300 |
| c1ccc(-c2nc(-n3ccnc3)nc(-n3ccnc3)n2)cc1 | 2780 |
| Brc1ccc(C2=Nn3c(nnc3-c3n[nH]c4c3CCC4)SC2)cc1 | 407 |
| Cc1cc(C)c2c(N)c3ccccc3nc2n1 | 762 |
| COc1ccc(CC(=O)N/N=C/c2c(C)n(C)c3ccccc23)cc1OC | 4460 |
| Cc1cccc2c(N)c3c(nc12)N(C)CC3 | 7370 |
| COc1ccc2c(c1)[C@H]1[C@H](CO2)[C@H](c2ccccc2)[C@]2(C)C(=O)Nc3ccccc3C(=O)N12 | 278 |
| COc1ccc(S(=O)(=O)NCc2ccccn2)cc1NC(=O)c1ccccc1F | 1200 |
| O=C(Oc1ccccc1C(=O)Nc1ccccc1)c1ccccc1Br | 1670 |
| CCCCn1c(SCc2c(C)noc2C)nc2cc(S(N)(=O)=O)ccc21 | 1190 |
| CCOC(=O)c1cc2[nH]c3ccccc3c2[n+](-c2ccc([N+](=O)[O-])cc2)c1N | 1930 |
| O=C(CCl)Nc1cn(-c2ccccc2)nc1-c1ccc(F)cc1 | 3860 |
| COc1cc2c(C(=O)N3CCN(c4cccc(Cl)c4)CC3)cn(C)c(=O)c2cc1OC | 3400 |
| COc1cc2c(cc1OC)CN(C(=O)c1ccc3nc[nH]c3c1)CC2 | 6320 |
| O=C(Cn1cnc2c(NCc3ccccc3)ncnc21)NCc1ccccc1 | 1760 |
| C[C@@]12C(=O)Nc3ccc(F)cc3C(=O)N1[C@H]1c3cc(Cl)ccc3OC[C@@H]1[C@@H]2c1ccccc1 | 1070 |

| SMILES | AC26 [nM] |
| --- | --- |
| Cc1ccc(Nc2nc(N)nc(CN3CCN(Cc4ccccc4)CC3)n2)cc1Cl | 110 |
| CC(C)(C)NCC(O)CON=C1c2ccccc2-c2ccccc21 (stereo not given) | 5310 |
| Cn1c(=O)cc(OCCCC(=O)Nc2ccc3c(c2)OCCO3)c2ccccc21 | 3060 |
| Cc1cc(C)nc(/N=C(\N)Nc2ccc(OCCC(C)C)cc2)n1 | 776 |
| c1ccc(-c2n[nH]c(-c3ccccc3)c2-c2nc3ccccc3[nH]2)cc1 | 4360 |
| CC(C)c1ccc(OCc2ccc(C(=O)N3CCCC3)o2)cc1 | 4230 |
| Cc1cccc(N2CCN(C(=O)c3ccncc3)CC2)c1C | 11400 |
| COc1ccc(OC)c(NS(=O)(=O)c2ccc(SC)cc2)c1 | 7410 |
| COc1ccc(CCn2c(=N)c(S(=O)(=O)c3ccc(C)cc3)cc3c(=O)n4ccccc4nc32)cc1 | 988 |
| Cn1nc(-c2ccc(Cl)cc2)c2cc(C(=O)NC3CC3)sc21 | 6320 |
| COc1cc(C2c3[nH]c4ccccc4c3CC3COC(=O)N32)cc(OC)c1O (stereo not given) | 780 |
| COc1ccc(F)cc1-c1cc(NC(C)=O)c2ncc(-c3cc(OC)c(OC)c(OC)c3)n2c1 | 11300 |
| Cc1cc(NC(=O)CSc2nc(-c3ccco3)cc(C(F)(F)F)n2)no1 | 565 |
| O=C(c1ccccc1-c1ccccc1)N1CCN(c2ccccn2)CC1 | 2340 |
| Cn1nc(C(=O)Nc2cccc(S(=O)(=O)N3CCCCC3)c2)c2ccccc2c1=O | 284 |
| Cn1c(=O)cc(OCCCC(=O)NC2CCCC2)c2ccccc21 | 2400 |
| Cc1cnc(NC(=O)c2cc(S(=O)(=O)N(C)C)ccc2N2CCCC2)s1 | 10.7 |
| CCN(CC)CCC(=O)Nc1cccc2c1C(=O)c1ccccc1C2=O | 965 |
| CCOc1ccc(S(=O)(=O)NCc2ccccn2)cc1NC(=O)c1ccccc1F | 593 |
| COc1ccc(NC(=O)c2ccc([N+](=O)[O-])o2)cc1 | 1020 |
| O=c1cc(-c2ccccc2)[nH]c2cc(F)ccc12 | 327 |
| CCc1nnc2n1N=C(c1ccc(OC)cc1)CS2 | 6840 |

| SMILES | AC26 [nM] |
| --- | --- |
| CCOc1ccc(N2C(=O)Nc3ccccc3C2(O)C(=O)N2CCN(c3ccccn3)CC2)cc1 (stereo not given) | 880 |
| O=C(CSCc1ccco1)Nc1cc(C(F)(F)F)ccc1N1CCOCC1 | 2080 |
| COc1cc(F)ccc1-c1csc(C(NC(C)=O)c2ccccc2)n1 (stereo not given) | 11.1 |
| Cn1cccc1/C=C1\C(=O)NC(=O)N(Cc2ccccc2)C1=O | 267 |
| COc1ccc(Nc2oc(-c3ccc(Cl)cc3)nc2C#N)cc1 | 348 |
| CSC1=NC(C(Cl)(Cl)Cl)N=C(c2ccccc2)N1 (stereo not given) | 1470 |
| COc1ccc(C(=O)c2ccc(N(C)C)cc2)c2ccccc12 | 2000 |
| Cc1nnc2c(NC(C)C)nc3ccccc3n12 | 4090 |
| COc1cc(/C=N/n2cnc3scc(-c4cccs4)c3c2=O)cc(OC)c1OC | 701 |
| C=CCn1c(SCc2c(C)noc2C)nc2sc(C)c(C)c2c1=O | 891 |
| COc1cccc(-c2cnc3c(NC(C)=O)cc(-c4cc(F)ccc4OC)cn23)c1 | 1600 |
| COc1ccc(NC(=O)C(=O)NCCC2CCCCN2S(=O)(=O)c2ccccc2)cc1 (stereo not given) | 5680 |
| Cc1nnc(NC(=O)CSc2nc(C(C)C)nc3ccccc23)s1 | 971 |
| CC(=O)c1cccc(Nc2cc(C)nc3c(C)cc(C)cc23)c1 | 4210 |
| COc1cc(C(=O)N/N=C/c2ccccn2)cc(OC)c1OC | 1160 |
| Cc1cccn2c(=O)c3cc(C(=O)NC4CCCC4)c(=N)n(CC4CCCO4)c3nc12 (stereo not given) | 8180 |
| COc1ccc(C(=O)/C=C/c2ccc(OC)c(O)c2)c(F)c1 | 4860 |
| CC(C)(C)OC(=O)[C@H](Cc1ccccc1)NC(=O)c1nc[nH]c1C(=O)N1CCc2ccccc2C1 | 3820 |
| COc1ccc(C(=O)CC(SCC(NC(C)=O)C(=O)O)c2ccc(Cl)cc2)cc1OC (stereo not given) | 1440 |
| COc1ccc2c(c1)[C@H]1[C@H](CO2)[C@H](c2ccccc2)[C@]2(C)C(=O)Nc3cc(F)c(F)cc3C(=O)N12 | 544 |
| N=c1c(C(=O)NCc2ccco2)cc2c(=O)n3ccccc3nc2n1CCc1ccccc1 | 707 |
| CCOC(=O)C(C)Oc1cccc2c(=O)n(CC(=O)NCc3ccc(F)cc3)ccc12 (stereo not given) | 1720 |
